The values below come from a melting point compilation (Tetko et al.; mined from patent text by program, amines drawn as free bases though some values may be those of a salt).

A value given as a limit tells only on which side of the number the result lay.

In general, melting point refers to the temperature of the solid-liquid transition.

In the case of `Cc1ccc(N=C=S)c(C)c1COC(=O)[C@H]1[C@@H](C=C(Cl)C(F)(F)F)C1(C)C` (relative stereo), the melting point stood at 60 °C.
Take `COC(=O)c1c(Cl)cc(Cl)cc1NC(=O)CSc1cccc(OC)c1`: the melting point lay within 89 to 90 °C.
To `CC(C)N(C[C@H](O)COc1ccc(OCc2ccccc2)cc1)S(C)(=O)=O` belongs 96 to 97 °C.
`Cc1c(F)c(N2CCCC(n3ccnn3)C2)c(F)c2c1c(=O)c(C(=O)O)cn2C1CC1` (configuration not stated): the melting point lay within 227 to 228 °C.
`COc1cc2c(cc1O)C(OC)CN(Cc1cc(OC)c(OC)c(OC)c1)C2` (configuration not stated) had a melting point of 51 to 54 °C.
To `CCCCCN(CCCCC)CCC(O)(P(=O)(O)O)P(=O)(O)O` belongs 47 to 49 °C; to `O=S1(=O)NCCNc2ccc(Oc3ccccc3)cc21`, 146 to 149 °C.
As for `CN(C)C1=C(c2cccc(C(F)(F)F)c2)C(=O)OC1`, the melting point was 110 °C.
With `CC(C)(C)c1ccc(OCC(O)CN2CCC3(CC2)CSC2=C(O3)c3cc(-c4ccccc4)ccc3C(=O)C2=O)cc1` (configuration not stated) the figure was 94 to 97 °C.
With `NP(N)(=O)NC(=O)c1ccc(F)cc1` the figure was 255 to 257 °C; with `C[C@@H](CSC(=O)c1ccccc1)C(=O)N1C(=O)N(C)C[C@H]1C(=O)O`, 162 °C.
To `CC(O)C(NC(=O)OC(C)(C)C)C(=O)OCC(=O)c1ccccc1` (configuration not stated) belongs 114 °C; to `CC(C)(C)OC(=O)N1CCC[C@H]1Cn1ccc2c3ccn(Cc4ccc(F)cc4)c(=O)c3ccc21`, 144 to 145 °C.
Regarding `CC1(C)CC(=O)OC(C(Cl)(Cl)Cl)C1Br` (configuration not stated), the melting point fell in the range of 98.5 to 99.5 °C.
With `N#Cc1c(CCC(=O)O)oc2cc(O)ccc2c1=O` the figure was 300 to 301 °C; with `O=Cc1csc(-c2ccccc2)c1`, 64 to 65 °C.
With `NC(=O)c1csc(-c2cccc([N+](=O)[O-])c2)n1` the figure was 239 to 241 °C; with `CCc1cc(OCc2ccc(-c3ccccc3-c3nnn(C(c4ccccc4)(c4ccccc4)c4ccccc4)n3)cc2)c2nc(OC(C)C)c(Cl)cc2n1`, 179 to 183 °C.
To `CCOC(=O)c1c(Nc2ccc(F)cc2[N+](=O)[O-])sc2c1CCCC2` belongs 140 to 142 °C; to `COC(=O)C1=C(C)NC(C)=C(C(=O)OCCN2CCN(Cc3ccccc3)CC2)C1c1cccc([N+](=O)[O-])c1` (configuration not stated), 106 to 108 °C; to `Cc1cc(-c2cnn3c(C(F)(F)F)cc(-c4ccc(C(F)(F)F)cc4)nc23)ccn1`, 243 °C.
`CS(=O)(=O)c1ccc(-c2cc(C(=O)c3ccc(Cl)cc3)sc2N2CCOCC2)cc1`: the melting point was determined as 169 °C.
With `CC(C)n1cc(-c2ccc(C=O)cc2)c2c(Cl)ncnc21` the figure was 138 to 140 °C; with `COc1c(N)cc(C)cc1N`, 67 to 69 °C.
For the molecule `CNC(=O)[C@@H](NC(=O)[C@@H](CC(=O)OCc1ccccc1)n1ccc(-c2ccc(-c3ccc(C#N)cc3)cc2)c1)C(C)(C)C`, the melting point amounted to 120 °C.
To `CCOC(=O)C1CCC(c2ccc(OCC(=O)O)c(Cl)c2Cl)=CC1=O` (configuration not stated) belongs 193 to 195 °C.
To `CNN(NC)C(=S)Oc1cc(C)ccc1C(=O)OC` belongs 99.9 to 100 °C.
Molecule `CCCCCCCCCCCCCCCCCC[PH](=O)C(OCC)OCC` (configuration not stated) yielded a melting point of 54 to 58 °C.
On to `OC(COc1cccc2[nH]ccc12)CN1CCC(c2c[nH]c3cc(F)ccc23)CC1` (single isomer, unassigned; (+)), for which the melting point lay within 94 to 97 °C.
For `COc1cc(Nc2c(C#N)cnc3cc(-c4ccc(C=O)o4)ccc23)c(Cl)cc1Cl`, the melting point is greater than 250 °C.
With `CCOC(=O)c1c(NC2CCCCC2)c(C#N)c(=O)n2ccccc12` the figure was 140 to 141 °C; with `COc1nc(OC)c(C=CC(C)=O)c(N(C)C)n1`, 116 °C.
With `CC(=NN(C)C(=O)c1ccccc1)c1ccncc1` the figure was 128 °C.
`N#Cc1c(Br)cc(Br)c(CCC(=O)O)c1Br`: the melting point was 164 to 166 °C.
With `CC(C)(C)OC(=O)NC(COCc1ccccc1)c1nc2c(C(F)(F)F)cccc2c(O)c1C(=O)Nc1nccs1` (configuration not stated) the figure was 208 °C.
`CCCCCOc1nc(N)nc2c1ncn2C1C=CC(CO)C1` (configuration not stated) had a melting point of 139 to 141 °C.
To `CCCCc1nn(-c2cc([N+](=O)[O-])ccc2Br)c(=O)n1Cc1ccc(-c2ccccc2S(=O)(=O)NC(C)(C)C)cc1` belongs 126 to 128 °C; to `O=C(c1ccccc1)c1ccc(N2CCN(c3ccncc3)CC2)cc1`, 136 to 137 °C.
`Cc1oc(-c2ccccc2)nc1COc1cc(COc2ncccc2CC(=O)O)on1` displayed a melting point of 129 to 130 °C.
With `O=C(COc1ncc(Cl)cc1Cl)Nc1ccccc1` the figure was 164 to 166 °C; with `CNC(=Nc1cc(Cl)ccc1N1CCOCC1)NC`, 145 to 146 °C.
Turning to `Nc1ccc(C(=O)Nc2ccccc2-c2nnn[nH]2)cc1`, the melting point lay in the range of 202 to 204 °C.
With `CN1CN(c2ccccc2)c2ncccc2C1=O` the figure was 140 to 141 °C.
To `CON=CC1CCCN(C(=O)Oc2ccccc2)C1` (configuration not stated) belongs 40 to 41 °C; to `CCCCc1nc2c(N)nc3ccccc3c2n1CCCC(C)=NOC`, 157 to 159 °C.
Turning to `CCOC(=O)c1cc(=O)c2cc3c(c(CC4CO4)c2o1)CCCC3` (configuration not stated), the melting point fell in the range of 138 to 140 °C.
To `Cc1[nH]cnc1CSCCNc1[nH]cc(Cc2ccccc2)c1[N+](=O)[O-]` belongs 192 to 193 °C.
As for `CCOC(=O)C(=O)c1ccc(OCCCn2c(=O)c3ccccc3c3ccccc32)cc1`, the melting point lay within 95 to 97 °C.
To `COc1ccc(C2CC(=O)N(C(N)=O)N2Cc2ccccc2)cc1OC1CCCC1` (configuration not stated) belongs 148 to 149 °C; to `CCc1cccc2c3c([nH]c12)C(CC)(CC(C)=O)OCC3` (configuration not stated), 154 to 155 °C; to `CC12CCC(C(=O)N(CCCCN3CCN(c4ccccn4)CC3)C1=O)C2(C)C` (configuration not stated), 96 to 97 °C.
To `CCC(CC)Nc1c([N+](=O)[O-])cc(C(C)C)c(CSC#N)c1[N+](=O)[O-]` belongs 68 to 70 °C.
To `c1ccc(Oc2cccc(Nc3nnc(Cc4ccncc4)c4ccccc34)c2)cc1` belongs 186 to 189 °C; to `COc1cccc(NS(=O)(=O)c2ccc(NC3=C(Cl)C(=O)c4ccccc4C3=O)cc2)c1`, 213 to 216 °C.
Regarding `O=C(Oc1ccccc1)N1CCN2C(=O)OC(Cc3ccccc3)(Cc3ccccc3)C2C1` (configuration not stated), the melting point fell in the range of 140 to 141 °C.
With `CC(=O)n1nc(-c2ccncc2)nc1-c1ccncc1` the figure was 156 to 158 °C; with `O=CNC1CCCc2sc(Br)cc21` (configuration not stated), 104 to 108 °C.
With `O=C(O)C1=Cc2cc(Oc3ccc(C(F)(F)F)cc3)cc(Cl)c2OC1C(F)(F)F` (configuration not stated) the figure was 224 to 226 °C; with `CC(=O)c1cc(S(=O)(=O)c2ccccc2)ccc1O`, 156 to 157 °C; with `N#CCCCC(=O)c1cc2ccccc2o1`, 79 °C.
The molecule `CCCCCCCCCCCCc1nnn(CC(=O)O)n1` displayed a melting point of 89 to 91 °C.
With `Cn1ncc2c1-c1cn[nH]c1CC2` the figure was 180 to 186 °C.
